This note sets out measurements from US5753617A, “Peptide inhibitors of cellular adhesion” (Centocor, Inc., priority 1995, dated 1998).

In general, IC50 refers to the concentration that inhibits the measured activity by half.

Where a SMILES comes first, the peptide text is derived from it. Bridges are numbered along the chain shown (N, C = ends). [ ]: non-standard residue; d: D form. 2Nal = N[C@@H](Cc1ccc2ccccc2c1)C(=O)O; NMeF = CN[C@@H](Cc1ccccc1)C(=O)O; dTic = O=C(O)[C@H]1Cc2ccccc2CN1; dThz = O=C(O)[C@H]1CSCN1

This experiment deals with T1, P-selectin (Homo sapiens, UniProt P16109).
T1 construct: P-selectin is isolated from human platelet lysates; from tissue; host or cells: human platelets (outdated platelet packs from a blood bank)
T1 sequence (P16109 42-830): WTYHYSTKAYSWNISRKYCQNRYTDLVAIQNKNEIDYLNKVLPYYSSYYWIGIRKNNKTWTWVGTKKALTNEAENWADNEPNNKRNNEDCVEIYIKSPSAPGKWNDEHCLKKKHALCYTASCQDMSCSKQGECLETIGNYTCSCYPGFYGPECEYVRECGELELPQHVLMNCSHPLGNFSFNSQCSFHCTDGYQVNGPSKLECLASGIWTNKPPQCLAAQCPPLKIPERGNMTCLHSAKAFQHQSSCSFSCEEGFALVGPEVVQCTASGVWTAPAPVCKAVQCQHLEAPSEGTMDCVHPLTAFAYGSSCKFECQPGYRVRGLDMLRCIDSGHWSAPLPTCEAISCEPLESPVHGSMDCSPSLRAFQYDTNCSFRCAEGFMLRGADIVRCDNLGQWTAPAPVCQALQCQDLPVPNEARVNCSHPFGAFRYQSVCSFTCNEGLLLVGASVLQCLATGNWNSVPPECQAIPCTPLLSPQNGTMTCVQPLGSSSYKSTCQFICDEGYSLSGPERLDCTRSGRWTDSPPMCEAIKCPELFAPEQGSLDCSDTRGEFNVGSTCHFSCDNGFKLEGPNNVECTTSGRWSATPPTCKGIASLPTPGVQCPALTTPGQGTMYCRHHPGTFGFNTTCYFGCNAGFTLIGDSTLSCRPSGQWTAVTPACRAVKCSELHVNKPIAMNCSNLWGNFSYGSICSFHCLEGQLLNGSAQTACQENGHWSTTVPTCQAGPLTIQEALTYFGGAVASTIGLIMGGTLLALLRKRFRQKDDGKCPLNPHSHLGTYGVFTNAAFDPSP
The experiment in a line: Inhibition of human neutrophil adhesion to purified P-selectin immobilized on plastic wells. The conditions noted are these: inhibiting the binding of human neutrophils to P-selectin. The format is cell-based. From the text:
Peptides can be screened for their ability to inhibit adhesion to cells, for example, neutrophil adhesion to purified P-selectin immobilized on plastic wells, using the assay described by Geng, et al., Nature 343, 757-760 (1990). Human neutrophils are isolated from heparinized whole blood by density gradient centrifugation on Mono-Poly resolving media, Flow Laboratories. Neutrophil suspensions are greater than 98% pure and greater than 95% viable by trypan blue exclusion. For adhesion assays, neutrophils are suspended at a concentration of 2×10^6 cells/mL in Hanks' balanced salt solution containing 1.26 mM Ca^2+ and 0.81 mM Mg^2+ (HBSS, Gibco) with […] human serum albumin (HBSS/HSA). Adhesion assays are conducted in triplicate in 96-well microliter plates, Corning, incubated at 4° C. overnight with 50 microliters of various protein solutions. P-selectin is isolated from human platelet lysates by immunoaffinity chromatography on antibody S12-Sepharose™ and ion-exchange chromatography on a Mono-Q™ column (FLPC, Pharmacia Fine Chemicals), as follows. Outdated human platelet packs (100 units) obtained from a blood bank and stored at 4° C. are pooled, adjusted to 5 mM EDTA at pH 7.5, centrifuged at 4,000 rpm for 30 minutes in 1 liter bottles, then washed three times with 1 liter of 0.1M NaCl, 20 mM Tris pH 7.5 (TBS), 5 mM EDTA, 5 mM benzamidine. The pellets are then resuspended in a minimum amount of wash buffer and made 1 mM in DIFP, then frozen in 50 mL screwtop tubes at -80° C. The frozen platelets are thawed and resuspended in 50 mL TBS, 5 mM benzamidine, 5 mM EDTA pH 7.5, […]. The suspension is frozen and thawed two times in a dry ice-acetone bath using a 600 mL lyophilizing flask, then homogenized in a glass/teflon mortar and pestle and made 1 mM in DIFP. The NaCl concentration is adjusted to 0.5M with a stock solution of 4M NaCl. After stirring the suspension at 4° C., it is centrifuged in polycarbonate tubes at 33,000 rpm for 60 minutes at 4° C. The supernatant (0.5M NaCl wash) is removed and saved; this supernatant contains the soluble form of P-selectin. Care is taken not to remove the top part of the pellet with the supernatant. The pellets are then homogenized in extraction buffer (TBS, 5 mM benzamidine, 5 mM EDTA, pH 7.5, 100 μM leupeptin, 2% Triton X-100). After centrifugation at 19,500 rpm for 25 minutes at 4° C., the supernatant is removed. The extraction procedure is repeated with the pellet and the supernatant is combined with the first supernatant. The combined extracts, which contain the membrane form of P-selectin, are adjusted to 0.5M NaCl. The soluble fraction (0.5M NaCl wash) and the membrane extract (also adjusted to 0.5M NaCl) are absorbed with separate pools of the monoclonal antibody S12 (directed to P-selectin) previously couple […]) at 5 mg/mL for 2 hours at 4° C. After letting the resins settle, the supernatants are removed. The S12 Affigel containing bound GMP-140 is then loaded into a column and washed overnight at 4° C. with 400 mL of 0.5M NaCl, 20 mM Tris pH 7.5, 0.01% Lubrol PX. Bound P-selectin is eluted from the S12 Affigel with 100 mL of 80% ethylene glycol, 1 mM MES pH 6.0, 0.01% Lubrol PX. Peak fractions with absorbance at 280 nm are pooled. Eluates are dialyzed against TBS with 0.05% Lubrol, then applied to a Mono Q column (FPLC from Pharmacia). The concentrated protein is step eluted with 2M NaCl, 20 mM Tris pH 7.5 (plus 0.05% Lubrol PX for the membrane fraction). Peak fractions are dialyzed into TBS pH 7.5 (plus 0.05% Lubrol PX for the membrane fraction). P-selectin is plated at 5 micrograms/mL and the control proteins: human serum albumin (Alb), platelet glycoprotein IIb/IIIa (IIb), von Willebrand factor (vWF), fibrinogen (FIB), thrombomodulin (TM), gelatin (GEL) or human serum (HS), are added at 50 micrograms/mL. […]
`CC(C)[C@@H](NC(=O)[C@@H](Cc1c[nH]c2ccccc12)NC(=O)[C@H](NC(=O)[C@@H](CCCCN)NC(=O)[C@H]1CSSC[C@@H](NC(=O)[C@@H](CCCCN)NC(=O)[C@H](N)CCCNC(=N)N)C(=O)NCC(=O)N[C@@H](Cc2ccccc2)C(=O)N1)[C@H](C)O)C(N)=O` [(56)] (H-[dR][dK][dC]GF[dC][dK][dT][dW][dV]-NH2; disulfide 3-6): the IC50 came out at 727 µM.

Compound `CC(C)[C@@H](NC(=O)[C@@H](Cc1c[nH]c2ccccc12)NC(=O)[C@H](NC(=O)[C@@H](Cc1c[nH]c2ccccc12)NC(=O)[C@H]1CSSC[C@@H](NC(=O)[C@@H](CCCCN)NC(=O)[C@H](N)CCCNC(=N)N)C(=O)NCC(=O)N2CSC[C@@H]2C(=O)N1)[C@H](C)O)C(N)=O` [(58)] (H-[dR][dK][dC]G[dThz][dC][dW][dT][dW][dV]-NH2; disulfide 3-6) came in with an IC50 of 186 µM.

Compound `CC(C)[C@@H](NC(=O)[C@@H](Cc1c[nH]c2ccccc12)NC(=O)[C@H](NC(=O)[C@@H](Cc1c[nH]c2ccccc12)NC(=O)[C@H]1CSSC[C@@H](NC(=O)[C@@H](CCCCN)NC(=O)[C@H](N)CCCNC(=N)N)C(=O)NCC(=O)N2Cc3ccccc3C[C@@H]2C(=O)N1)[C@H](C)O)C(N)=O` [(59)] (H-[dR][dK][dC]G[dTic][dC][dW][dT][dW][dV]-NH2; disulfide 3-6) came in with an IC50 of 18.3 µM.

Compound `CC(C)[C@@H](NC(=O)[C@@H](Cc1c[nH]c2ccccc12)NC(=O)[C@H](NC(=O)[C@@H](Cc1c[nH]c2ccccc12)NC(=O)[C@H]1CSSC[C@@H](NC(=O)[C@@H](CCCCN)NC(=O)[C@H](N)CCCNC(=N)N)C(=O)NCC(=O)N[C@@H](Cc2c[nH]c3ccccc23)C(=O)N1)[C@H](C)O)C(N)=O` [(60)] (H-[dR][dK][dC]GW[dC][dW][dT][dW][dV]-NH2; disulfide 3-6) showed an IC50 of 1.4 µM.

In the case of `CC(C)[C@@H](NC(=O)[C@@H](Cc1c[nH]cn1)NC(=O)[C@H](NC(=O)[C@@H](Cc1c[nH]c2ccccc12)NC(=O)[C@H]1CSSC[C@@H](NC(=O)[C@@H](CCCCN)NC(=O)[C@H](N)CCCNC(=N)N)C(=O)NCC(=O)N[C@@H](Cc2ccccc2)C(=O)N1)[C@H](C)O)C(N)=O` [(61)] (H-[dR][dK][dC]GF[dC][dW][dT][dH][dV]-NH2; disulfide 3-6), the IC50 was determined as 65.4 µM.

`CC(C)[C@@H](NC(=O)[C@@H](CCCCN)NC(=O)[C@H](NC(=O)[C@@H](Cc1c[nH]c2ccccc12)NC(=O)[C@H]1CSSC[C@@H](NC(=O)[C@@H](CCCCN)NC(=O)[C@H](N)CCCNC(=N)N)C(=O)NCC(=O)N[C@@H](Cc2ccccc2)C(=O)N1)[C@H](C)O)C(N)=O` [(62)] (H-[dR][dK][dC]GF[dC][dW][dT][dK][dV]-NH2; disulfide 3-6) returned an IC50 of 533 µM.

`CC(C)[C@@H](NC(=O)[C@@H](Cc1ccc(O)cc1)NC(=O)[C@H](NC(=O)[C@@H](Cc1c[nH]c2ccccc12)NC(=O)[C@H]1CSSC[C@@H](NC(=O)[C@@H](CCCCN)NC(=O)[C@H](N)CCCNC(=N)N)C(=O)NCC(=O)N[C@@H](Cc2ccccc2)C(=O)N1)[C@H](C)O)C(N)=O` [(63)] (H-[dR][dK][dC]GF[dC][dW][dT][dY][dV]-NH2; disulfide 3-6) came in with an IC50 of 19.3 µM.

On to `CC(C)[C@@H](NC(=O)[C@@H](Cc1c[nH]c2ccccc12)NC(=O)[C@H](NC(=O)[C@@H](Cc1ccc(O)cc1)NC(=O)[C@H]1CSSC[C@@H](NC(=O)[C@@H](CCCCN)NC(=O)[C@H](N)CCCNC(=N)N)C(=O)NCC(=O)N[C@@H](Cc2ccccc2)C(=O)N1)[C@H](C)O)C(N)=O` [(64)] (H-[dR][dK][dC]GF[dC][dY][dT][dW][dV]-NH2; disulfide 3-6), for which the IC50 was 46.2 µM. This IC50 lies about 2.4-fold higher than the previous one.

On to `CC[C@@H](C)[C@H]1NC(=O)[C@H]([C@@H](C)CC)NC(=O)[C@H](NC(=O)[C@@H](CCCCN)NC(=O)[C@H](N)CCCNC(=N)N)CSSC[C@H](C(=O)N[C@H](Cc2c[nH]c3ccccc23)C(=O)N[C@@H](C(=O)N[C@H](Cc2c[nH]c3ccccc23)C(=O)N[C@@H](C(N)=O)C(C)C)[C@H](C)O)NC1=O` [(67)] (H-[dR][dK][dC]I[dI][dC][dW][dT][dW][dV]-NH2; disulfide 3-6), for which the IC50 came out at 11.1 µM.

The compound `CC(C)[C@@H](NC(=O)[C@@H](Cc1c[nH]c2ccccc12)NC(=O)[C@H](NC(=O)[C@@H](Cc1c[nH]c2ccccc12)NC(=O)[C@H]1CSSC[C@@H](NC(=O)[C@@H](CCCCN)NC(=O)[C@H](N)CCCNC(=N)N)C(=O)NCC(=O)N(C)[C@@H](Cc2ccccc2)C(=O)N1)[C@H](C)O)C(N)=O` [(72)] (H-[dR][dK][dC]G[NMeF][dC][dW][dT][dW][dV]-NH2; disulfide 3-6) displayed an IC50 of 37.7 µM.

Take `CC(C)[C@@H](NC(=O)[C@@H](Cc1c[nH]c2ccccc12)NC(=O)[C@H](NC(=O)[C@@H](Cc1c[nH]c2ccccc12)NC(=O)[C@H]1CSSC[C@@H](NC(=O)[C@@H](CCCCN)NC(=O)[C@H](N)CCCNC(=N)N)C(=O)NCC(=O)N[C@@H](Cc2ccc3ccccc3c2)C(=O)N1)[C@H](C)O)C(N)=O` [(73)] (H-[dR][dK][dC]G[2Nal][dC][dW][dT][dW][dV]-NH2; disulfide 3-6): the IC50 worked out at 3.2 µM.

With `CC(C)[C@H](NC(=O)[C@H]1CSSC[C@@H](NC(=O)[C@@H](CCCCN)NC(=O)[C@H](N)CCCNC(=N)N)C(=O)NCC(=O)N[C@@H](Cc2ccccc2)C(=O)N1)C(=O)N[C@H](Cc1c[nH]c2ccccc12)C(=O)N[C@@H](C(=O)N[C@H](Cc1c[nH]c2ccccc12)C(N)=O)[C@H](C)O` [(75)] (H-[dR][dK][dC]GF[dC]V[dW][dT][dW]-NH2; disulfide 3-6), the IC50 was found to be 6 µM. This IC50 is about 1.9-fold higher than that of the compound before.

Consider `CC(C)[C@@H](NC(=O)[C@H]1CCCN1C(=O)[C@H](NC(=O)[C@@H](Cc1c[nH]c2ccccc12)NC(=O)[C@H]1CSSC[C@@H](NC(=O)[C@@H](CCCCN)NC(=O)[C@H](N)CCCNC(=N)N)C(=O)NCC(=O)N[C@@H](Cc2ccccc2)C(=O)N1)[C@H](C)O)C(N)=O` [(77)] (H-[dR][dK][dC]GF[dC][dW][dT][dP][dV]-NH2; disulfide 3-6), for which the IC50 came out at 2270 µM.

The compound `CC(C)[C@@H](NC(=O)[C@@H](Cc1ccc2ccccc2c1)NC(=O)[C@H](NC(=O)[C@@H](Cc1c[nH]c2ccccc12)NC(=O)[C@H]1CSC[C@@H](NC(=O)[C@@H](CCCCN)NC(=O)[C@H](N)CCCNC(=N)N)C(=O)NCC(=O)N[C@@H](Cc2ccccc2)C(=O)N1)[C@H](C)O)C(N)=O` [(78)] had an IC50 of 50.7 µM.
